Assay results published in patent publication US12478574B2, “Oral care compositions” (Colgate-Palmolive Company, priority 2016, dated 2025).

Test: Atomic Absorption analysis of top and bottom layers for Zn2+
Assay type: physicochemical
Settings: overall 1% ZnCl2 (4800 ppm)
Method: Results are similar with Zn^2+ as the cation. […] The concentration of Zn^2+ in the top layer was measured as 1400 ppm Zn^2+ while the bottom was 8800 ppm, i.e., 6.3 fold higher concentration vs. the top.

[Cl-].[Cl-].[Zn+2] [ZnCl2]
Zn2+ concentration, bottom vs. the top: 6.3 fold
concentration of Zn2+ in the bottom layer: 8800 ppm
concentration of Zn2+ in the top layer: 1400 ppm
